The results in this text go back to paper PMC11855827, “High-Throughput Screening of Five Compound Libraries for Anthelmintic Activity and Toxicity Leads to the Discovery of Two Flavonoid Compounds” (International Journal of Molecular Sciences, 2025).

The subject of the assay is C. elegans.
Setting [1] is: Table S2, C. elegans SS assay, 110 μM, averages of 4 data points.

“And” between values parts separate entries of the source, which are not always exact repeats. Equal values may be shown once. Read-outs that look alike come from different tables or passages of the source. Where no end group is shown, it is not given here.

For `CC(C)C[C@H](NP(=O)([O-])O[C@H]1O[C@H](C)[C@@H](O)[C@H](O)[C@@H]1O)C(=O)N[C@@H](Cc1c[nH]c2ccccc12)C(=O)[O-].[Na+].[Na+]` [Phosphoramidon (Disodium)], under setting [1], the “Percentage of motility inhibition 0 h” value stood at 19% and the “Percentage of motility inhibition 24 h” value was 7%.
As to `C[C@@H]1CC[C@H]2[C@@H](C)C(=O)O[C@@H]3O[C@@]4(C)CC[C@@H]1[C@]32OO4` [Artemisinin], the “Percentage of motility inhibition 24 h” value under setting [1] is 9% and 0%.
As to RKDVY [Thymopentin], the “Percentage of motility inhibition 0 h” value (110 μM) is on record as 36%. Also, where the note is “110 µM”, the “Percentage of motility inhibition 24 h” value was 3%.
Turning to `CC1(C)CC[C@]2(C(=O)O[C@@H]3O[C@H](CO)[C@@H](O)[C@H](O)[C@H]3O)[C@H](O)C[C@]3(C)C(=CC[C@@H]4[C@@]5(C)CC[C@H](O[C@@H]6O[C@H](CO)[C@@H](O)[C@H](O)[C@H]6O)C(C)(C)[C@@H]5CC[C@]43C)[C@@H]2C1` [Eclalbasaponin I], under setting [1], the “Percentage of motility inhibition 0 h” value is on record as 35% and the “Percentage of motility inhibition 24 h” value turned out to be 35%.
On to Alpinetin, for which, under setting [1], the “Percentage of motility inhibition 0 h” value stood at 1% and the “Percentage of motility inhibition 24 h” value is on record as 14%.
On to `O=c1cc(-c2ccc(O)cc2)oc2c([C@@H]3O[C@H](CO)[C@@H](O)[C@H](O)[C@H]3O)c(O)c([C@@H]3O[C@H](CO)[C@@H](O)[C@H](O)[C@H]3O)c(O)c12` [Vicenin 2], for which, under setting [1], the “Percentage of motility inhibition 0 h” value is listed as 0% and the “Percentage of motility inhibition 24 h” value was 3%.
On to `CC/C=C\C/C=C\C/C=C\CCCCCCCC(=O)NCc1ccccc1` [N‐Benzyllinolenamide], for which, under setting [1], the “Percentage of motility inhibition 0 h” value stood at 2% and the “Percentage of motility inhibition 24 h” value is 0%.
For `CC1(C)[C@@H](O[C@@H]2OC[C@H](O[C@@H]3O[C@H](CO)[C@@H](O)[C@H](O)[C@H]3O[C@@H]3OC[C@@H](O)[C@H](O)[C@H]3O)[C@H](O)[C@H]2O[C@@H]2O[C@H](CO)[C@@H](O)[C@H](O)[C@H]2O)CC[C@]2(C)[C@H]3CC[C@]45OC[C@@]6(CC[C@](C)(C=O)C[C@H]64)[C@H](O)C[C@@]5(C)[C@]3(C)CC[C@@H]12` [Ardisiacrispin A], under setting [1], the “Percentage of motility inhibition 0 h” value was determined as 22% and the “Percentage of motility inhibition 24 h” value stood at 0%.
The like results for `CN1CCC=C(C(=O)O)C1.Cl` [Arecaidine (hydrochloride)] were, in that order, 7% and 6%.
Turning to `COc1cc2c(cc1O)CC[n+]1cc3c(OC)c(OC)ccc3cc1-2.[Cl-]` [Jatrorrhizine (chloride)], under setting [1], the “Percentage of motility inhibition 0 h” value is 33% and the “Percentage of motility inhibition 24 h” value was 4%.
As for `COC(=O)C1=CO[C@@H](O[C@@H]2O[C@H](CO)[C@@H](O)[C@H](O)[C@H]2O)[C@@H]2C(CO)=C[C@H](O)[C@H]12` [Methyl deacetylasperulosidate], under setting [1], the “Percentage of motility inhibition 0 h” value is 16% and the “Percentage of motility inhibition 24 h” value came out at 30%.
`CCN1C[C@]2(COC)[C@H](O)C[C@H](OC)[C@@]34[C@@H]5C[C@@]6(O)[C@H](OC(=O)c7ccccc7)[C@@H]5[C@@](O)([C@@H]([C@H](OC)[C@H]23)[C@@H]14)[C@@H](O)[C@@H]6OC` [Benzoylaconine]: under setting [1], the “Percentage of motility inhibition 0 h” value turned out to be 2% and the “Percentage of motility inhibition 24 h” value was 0%.
On to `CC1(C)[C@@H](O)CC[C@]2(C)[C@H]3C(=O)C=C4[C@@H]5C[C@@](C)(C(=O)O)CC[C@]5(C)CC[C@@]4(C)[C@]3(C)CC[C@@H]12` [18β-Glycyrrhetinic acid], for which, under setting [1], the “Percentage of motility inhibition 0 h” value was 15% and 6%.
Consider (+)‐Sparteine, for which, under setting [1], the “Percentage of motility inhibition 0 h” value was found to be 5% and the “Percentage of motility inhibition 24 h” value came to 13%.
As for Enfuvirtide, the “Percentage of motility inhibition 0 h” value (110 μM) came to 36%. In addition, the “Percentage of motility inhibition 24 h” value (110 µM) came out at 30%.
For `O=c1cc(-c2ccc(O)cc2)oc2c([C@@H]3OC[C@@H](O)[C@H](O)[C@H]3O)c(O)c([C@@H]3O[C@H](CO)[C@@H](O)[C@H](O)[C@H]3O)c(O)c12` [Vicenin 3], under setting [1], the “Percentage of motility inhibition 0 h” value amounted to 15% and the “Percentage of motility inhibition 24 h” value is recorded as 3%.
